Measured values reported in patent US8357350B2, “Annulus fibrosus detection in intervertebral discs using molecular imaging agents” (General Electric Company, priority 2009, dated 2013).

Columns and labels:
[1] = Absorbance and fluorescence spectra of FM fluorophores in solvents; assay type: physicochemical; conditions: for Em nm (MeOH): emission maximum in MeOH; for Em nm (PBS): emission maximum in PBS; for Ex nm (MeOH): excitation maximum in MeOH; for Ex nm (PBS): excitation maximum in PBS
Experimental: (§1) Absorbance and fluorescence spectra of the FM fluorophores were measured in PBS and absolute methanol (MeOH) using fiber-optic HR2000 (200-1100 nm) and USB2000FL (350-1000 nm) spectrometers (Ocean Optics, Dunedin, Fla.), respectively. Fluorescence excitation was provided by a 2 mW, 532 nm laser diode. The fluorescence and absorbance spectra of FORMULA II and FORMULA IA were collected in dimethyl sulfoxide (DMSO) and fetal bovine serum (FBS), as well as MeOH and PBS. The quantum yield of FORMULA II and FORMULA IA in DMSO, MeOH, FBS and PBS was measured by comparing the integrated fluorescence emission of the fluorophores in each solvent to the emission of Alexa Fluor 555 (Invitrogen) in PBS (quantum yield=10%) as a reference standard under conditions of matched absorbance at the excitation wavelength. The LogD of each FM fluorophore at pH 7.5 was calculated using Marvin 5.0.3 software (ChemAxon, Budapest, Hungary).

trigeminal ganglia = assay: FM fluorophore uptake, intraoperative fluorescence imaging; assay type: in vivo, mice and rats; conditions: 5 mg/kg mice, 0.5 mg/kg rats IP, 16 hours before imaging; signal normalized to muscle, vs vehicle control; also: key: +: Positive contrast was concluded if the nerve-to-muscle contrast ratio of FM fluorophore-injected animals was elevated relative to control animals
Experimental: (§2) Imaging was carried out at near infrared wavelenghts using a 400- to 700-nm “white” light (0.5 mW/cm^2) and a 725- to 775-nm NIR fluorescence excitation light (5 mW/cm^2). Fluorescence images were collected using exposure times ranging from 500 to 2000 msec. All images collected for comparison between vehicle-injected control animals and FM fluorophore-injected animals had the same exposure time and normalization. Color video images were collected on a separate optical channel using custom designed software. The excitation and emission LEDs and filter used for the FM fluorophores and Pam800 in the intraoperative imaging system are described as follows. For fluorescence excitation of FM 1-43, FM 2-10, FM 1-43FX and Formula IA, sixty 5-mm 470 nm LEDs ([…], Inc., Kyoto, Japan) fitted with 470±20 nm band pass (BP) excitation filters (Chroma Technology, Rockingham, Vt.) in custom holders were used, which produced a fluence rate on the imaging surface of 0.56 mW/cm^2. For fluorescence excitation of Formula II, FM 4-64, FM 4-64FX and FM 5-95, sixty 5-mm 535 nm LEDs fitted with 525±25 nm BP excitation filters were used, which produced a fluence rate on the imaging surface of 0.34 mW/cm^2. A 610±38 nm BP filter was used to detect fluorescence emission of FM 1-43, FM 2-10, Formula II, FM 1-43FX and Formula IA. To detect fluorescence emission of FM 4-64, FM 4-64FX and FM 5-95 a 720 nm long pass (LP) filter was used. For fluorescence excitation of Pam800, 348 5-mm 760 nm LEDs fitted with 764±17 nm BP excitation filters were used, which produced a fluence rate on the imaging surface of 8.73 mW/cm^2 and fluorescence emission was detected using a 824±24 nm BP emission filter. To assess the structure-activity relationship of the FM fluorophores, each molecule was administered at 5 mg/kg to mice and 0.5 mg/kg to rats (n=4 per group) in 10% DMSO and 90% PBS IP 16 hours before imaging with the intraoperative system. The fluorescence signal from the spinal cord, intervertebral discs, dorsal root ganglia, trigeminal ganglia, optic nerve, brain and femoral nerve were normalized to muscle signal in the same image. This normalization ratio was then compared between FM fluorophore-injected animals and vehicle-injected control animals.

dorsal root ganglia [2] = assay: as above; assay type: in vivo, mice and rats; conditions: 5 mg/kg mice, 0.5 mg/kg rats IP, 16 hours before imaging; signal normalized to muscle, vs vehicle control
Experimental: as §2

intervertebral discs = assay: as above; assay type: in vivo, mice and rats; as to Uptake: Intervertebral Disc: key: +: Positive contrast was concluded if the nerve-to-muscle contrast ratio of FM fluorophore-injected animals was elevated relative to control animals
Experimental: as §2

dorsal root ganglia [3] = assay: Histology and fluorescence microscopy of dorsal root ganglia; assay type: in vivo; conditions: rat, 0.5 mg/kg, 16 h post-IP
Experimental: Tissues from mice, rats and pig were preserved for microscopic assessment and localization of fluorescence signal. Tissues were extracted from the animal and placed in 2% paraformaldehyde in PBS for 2 to 4 hours before mounting in Tissue-Tek OCT compound (Fisher Scientific, Pittsburgh, Pa. ) and flash-freezing in liquid nitrogen. Each sample was cryo-sectioned (12 μm per slice); one slide was stained with hematoxylin and eosin (H&E) and a consecutive section was used for fluorescence microscopy. For fluorescence microscopy, serial sections were imaged on a Nikon TE 300 microscope system equipped with a mercury excitation source (Chiu Technical Corporation, Kings Park, N.Y.), Orca-ER 12-bit camera (Hamamatsu, Bridgewater, N.J.), and IPLab software (BD Biosciences, Rockville, Md.), using the following excitation and emission filters combinations. To obtain fluorescence images of FM 4-64, the mercury light source was passed through a 540±15 nm BP excitation filter, 700 nm dichroic beam splitter and 720 nm LP emission filter. To obtain fluorescence images of FM 1-43FX and Formula IA, the mercury light source was passed through a 460±25 nm BP excitation filter, 505 nm dichroic beam splitter and a 610±38 nm BP emission filter. Exposure times were adjusted between 5 and 2000 ms for fluorescence images.

[4] = Fluorescence quantum yield versus Alexa Fluor 555 reference; assay type: physicochemical; conditions: highest in FBS among DMSO, MeOH, PBS
Experimental: as §1
For Uptake: Dorsal Root Ganglia in this document: key: +: Positive contrast was concluded if the nerve-to-muscle contrast ratio of FM fluorophore-injected animals was elevated relative to control animals.

| Em nm (MeOH) [1] | Em nm (PBS) [1] | Ex nm (MeOH) [1] | Ex nm (PBS) [1] | blue shift of emission maximum in FBS ([1]; FBS compared to DMSO, MeOH or PBS) | fluorescence quantum yield, times higher in FBS [4] | Structure (SMILES) | Uptake: Trigeminal Ganglia (trigeminal ganglia) | Uptake: Dorsal Root Ganglia (dorsal root ganglia [2]) | Uptake: Intervertebral Disc (intervertebral discs; 5 mg/kg mice, 0.5 mg/kg rats IP, 16 hours before imaging, signal normalized to muscle, vs vehicle control) | contrast in the intervertebral discs (intervertebral discs; IP administration to mice and rats) | microscopic localisation of fluorescence in dorsal root ganglion (dorsal root ganglia [3]) |
| --- | --- | --- | --- | --- | --- | --- | --- | --- | --- | --- | --- |
| 622 nm | 628 nm | 507 nm | 490 nm |  |  | CCN(CC)c1ccc(/C=C/c2cc[n+](CCC[N+](CC)(CC)CC)cc2)cc1.[Br-].[Br-] [FM 2-10] | + |  |  |  |  |
| 811 nm | 808 nm | 546 nm | 507 nm |  |  | CCN(CC)c1ccc(/C=C/C=C/C=C/c2cc[n+](CCC[N+](CC)(CC)CC)cc2)cc1.[Br-].[Br-] [FM 4-64] | + | + |  |  | significant fluorescence intensity was seen in the dense cellular regions |

Second part, the molecule before the results:

| Structure (SMILES) | Em nm (MeOH) [1] | Em nm (PBS) [1] | Ex nm (MeOH) [1] | Ex nm (PBS) [1] | blue shift of emission maximum in FBS ([1]; FBS compared to DMSO, MeOH or PBS) | fluorescence quantum yield, times higher in FBS [4] | Uptake: Trigeminal Ganglia (trigeminal ganglia) | Uptake: Dorsal Root Ganglia (dorsal root ganglia [2]) | Uptake: Intervertebral Disc (intervertebral discs; 5 mg/kg mice, 0.5 mg/kg rats IP, 16 hours before imaging, signal normalized to muscle, vs vehicle control) | contrast in the intervertebral discs (intervertebral discs; IP administration to mice and rats) | microscopic localisation of fluorescence in dorsal root ganglion (dorsal root ganglia [3]) |
| --- | --- | --- | --- | --- | --- | --- | --- | --- | --- | --- | --- |
| CCN(CC)c1ccc(C=CC=CC=Cc2cc[n+](CCC[N+](C)(C)C)cc2)cc1.[Br-].[Br-] [FM 5-95] | 809 nm | 809 nm | 542 nm | 490 nm |  |  | + | + |  |  |  |
| CCCCN(CCCC)c1ccc(/C=C/c2cc[n+](CCC[N+](CC)(CC)CC)cc2)cc1.[Br-].[Br-] [FM 1-43] | 624 nm | 631 nm | 509 nm | 493 nm |  |  | + | + | + | positive contrast |  |
| CCCCN(CCCC)c1ccc(/C=C/C=C/C=C/c2cc[n+](CCC[N+](CC)(CC)CC)cc2)cc1.[Br-].[Br-] [Formula II, 4-((1 E,3E,5E)-6-(4-(dibutylamino)phenyl)hexa-1,3,5-trienyl)-1-(3-(triethylammonio)propyl)pyridinium dibromide] | 813 nm | 808 nm | 549 nm | 519 nm | over 100 nm | 10 times | + |  |  |  |  |
